Assays:
[1] = target: T1, human LPA receptor EDG-2 (Homo sapiens, UniProt Q92633); assay: FUS1::lacZ (β-galactosidase) reporter assay in yeast expressing EDG-2; type: cell-based; settings: for activation of EDG-2 (FUS1::lacZ activity): concentrations up to 200 μM, S.C.+2% galactose; for activity towards EDG-2 of liposome preparations on their own: liposomes without LPA
T1 construct: The EDG-2 coding region was amplified by RT-PCR using Pfu DNA polymerase; expressed in transfected cells; host or cells: Saccharomyces cerevisiae JEY5 (sst2-, far1, FUS1::lacZ), plasmid pYEUra3-Edg2 (pJE15), galactose-inducible
T1 sequence (Q92633 whole entry): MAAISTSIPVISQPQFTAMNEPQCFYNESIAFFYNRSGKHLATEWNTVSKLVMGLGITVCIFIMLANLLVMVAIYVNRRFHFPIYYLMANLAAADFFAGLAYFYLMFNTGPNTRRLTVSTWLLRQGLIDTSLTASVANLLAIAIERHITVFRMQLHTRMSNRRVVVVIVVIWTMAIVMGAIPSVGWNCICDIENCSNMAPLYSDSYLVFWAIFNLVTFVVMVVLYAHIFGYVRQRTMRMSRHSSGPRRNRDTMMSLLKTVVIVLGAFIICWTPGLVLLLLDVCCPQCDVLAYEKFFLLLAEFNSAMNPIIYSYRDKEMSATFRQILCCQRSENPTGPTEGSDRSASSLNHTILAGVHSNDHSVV
Method: SY2069 (Mata, far1-bad3, HIS3::pFUS1::HIS3, mfa2-Δ1::pFUS1::lacZ, ura3, leu2, ade1, arg4, trp1) was used to derive an sst2^− strain for subsequent studies. SST2 was disrupted using pBC14 (Dohlman, H. G., et al. (1996) Mol. Cell. Biol. 16(9), 5194-5209). pBC14 was digested with NcoI and transformed into SY2069 by lithium acetate using the URA3 gene for selection. Ura^+ colonies were grown in non-selective media (YEPD) and plated onto media containing 5-Flouro-orotic Acid (5-FOA, Sigma). The resultant 5-FOA resistant isolates were tested for the supersensitive phenotype by assaying lacZ activity in response to α-factor (data not shown). One sst2^− strain was named JEY5 and used in all subsequent studies. Yeast were grown in SC+2% Galactose or 2% Glucose media lacking Uracil.
Construction of EDG-2 Expression Plasmid and Expression in Yeast: The EDG-2 coding region was amplified by RT-PCR using Pfu DNA polymerase under conditions described by the supplier (Stratagene). The template for RT-PCR was cDNA (5 ng) that was reverse transcribed from human fetal brain total RNA (Clontech) using SuperScript II Reverse Transcriptase as described by the supplier (Gibco BRL). 1 μM each of the following primers, FP; 5′-[…]-3′ (SEQ ID NO. 2) and RP; 5′-[…]-3′ (SEQ ID NO. 3), were used for RT-PCR. Oligonucleotide Synthesis and DNA Sequencing: PCR primers and DNA sequencing primers were synthesized by the phosphoramidite method with an Applied Biosystems model 394 synthesizer, purified by polyacrylamide gel electrophoresis and desalted on Sep-Pak C18 cartridges (Waters Associates, Milford, Mass.). The edg-2 cDNA was sequenced in pYEUra3 by the dideoxy chain termination method using the T7 Sequenase7-deaza-dGTP sequencing kit as described by the supplier (Amersham Life Science). The primers were designed based on the human edg-2 cDNA sequence submitted to Genbank by Zondag and Moolenaar (accession no. Y09479) and included restriction site extensions for subcloning into the pYEUra3 vector (Stratagene). This placed the cDNA under the control of a galactose-inducible promoter (UASgal). The resulting plasmid was used to transform JEY5 by the lithium acetate method.
(§1) Expression of the EDG-2: To test the effects of the SST2 gene product on the edg-2 response to LPA, JEY5 (sst2Δ) expressing the EDG-2 receptor was compared to the parental SY2069 strain (SST2^+). […] As a control, JEY5+EDG-2 was assayed in 2% glucose such that the GAL1 promoter would be repressed and thus not expressing the edg-2 gene (glucose repression is described in detail by Johnston, M., and Carlson, M. (1992) in The molecular and cellular biology of the yeast Saccharomyces: gene expression (Broach, J. R., Pringle, J. R., and Jones, E. W., eds), pp. 193-281, Cold Spring Harbor Laborartory Press, Plainview, N.Y.). lacZ assays in response to phospholipids: JEY5+pJE15 was grown on SC media containing either 2% galactose or 2% glucose lacking uracil to an approximate optical density of 0.1-0.5 prior to the addition of lipid or α-factor. LPA and other glycerophospholipids (Avanti Polar Lipids) were dissolved in chloroform and dried down under vacuum immediately prior to experiments and resuspended in BBS/EDTA (50 mM NH4HCO3, 104 mM NaCl, 250 mM EDTA2Na) at 1 mg/ml with sonication until the solution was clear. Sphingosine-1-phosphate (Matreya) was resuspended in ethanol/water (9:1) pH 3.0 immediately prior to use. Fatty Acid Free Bovine Serum Albumin was obtained from Sigma (St. Louis, Mo.) and used at 0.1 mg/ml in BBS/EDTA. Cells were allowed to grow for the indicated time (7 hours for dose response experiments) prior to assaying. 100 μl of yeast culture were then added to 900 μl assay buffer (per liter: 60 mM Na2HPO4, 40 mM NaH2PO4, 10 mM KCl, 0.1 mM MgSO4, pH 7.0 plus 2.7 ml β-mercaptoethanol per liter) plus 50 μl 0.1%SDS+three drops Chloroform. Cells were vortexed for 10 seconds and incubated for 5 minutes at 28° C.

[2] = tested on: yeast cells; assay: Toxicity of lipids to the yeast cells in the lacZ assay; type: cell-based, Saccharomyces cerevisiae; settings: yeast culture
Method: as §1, with “[…] Color development” for “Fatty Acid Free Bovine Serum Albumin”, “measured at A420” for “obtained from Sigma (St. Louis, Mo.)”, “normalized to A600. Units” for “used at 0.1 mg/ml in BBS/EDTA. Cells”, “expressed as Miller Units. […]” for “allowed to grow for the indicated time (7 hours for dose response experiments) prior to assaying. 100 μl of yeast culture were then added to 900 μl assay buffer (per liter: 60 mM Na2HPO4, 40 mM NaH2PO4, 10 mM KCl, 0.1 mM MgSO4, pH 7.0 plus 2.7 ml β-mercaptoethanol per liter) plus 50 μl 0.1%SDS+three drops Chloroform. Cells were vortexed for 10 seconds and incubated for 5 minutes at 28° C.”

With “1-acyl-2-hydroxy-sn-glycero-3-phosphate [LPA]” as the compound, how does the “response of FUS1::lacZ to LPA, sst2- derivative” value ([1]; JEY5 (sst2Δ) expressing EDG-2, 200 μM LPA, galactose, seven hours) read?
Its value is “activated”.

And the “activation of EDG-2 (FUS1::lacZ activity)” value (shortened to “activation”) ([1]; seven hours)?
The value was “specifically responds”.

And the “response of FUS1::lacZ to LPA, SST2+ strain” value ([1]; parental SY2069 strain (SST2+) expressing EDG-2)?
The value was “unresponsive”.

What about the “maximal stimulation of lacZ activity as compared to vector control” value ([1]; time course, at 7 hours) of the same compound?
The value was “four-fold”.

And the “concentration at which toxicity was seen / above which testing was not possible due to toxicity” value [2]?
The value was “above 600 μM”.

With `CCCCCCCCCCCCC/C=C/[C@@H](O)[C@@H](N)COP(=O)(O)O` [Sphingosine-1-phosphate] as the compound, how does the “activation” value ([1]; seven hours) read?
Its value is “no other lyso-glycerolphospholipid or Sphingosine-1-phosphate activated EDG-2 as well as did LPA”.

What about the “activation” value ([1]; seven hours, listed as sphingosine-1-phosphate) of the same compound?
The value was “does not respond”.

“1-palmitoyl-2-oleoyl-phosphatidylglycerol” was tested. Which “activity towards EDG-2 of liposome preparations on their own” value [1] did it give?
The value was “no activity”.

How did the “activity towards EDG-2 of liposome preparations on their own” value [1] turn out when dioleoyl-phosphatidylcholine was run?
Its value is “no activity”.
